Legend:
HT-1376 cells = assay: Flow cytometry with fluorescent probe; format: cell-based, human; conditions: 1 µM probe, on ice 1 h; 5637 cells as negative
Method: For flow cytometry analysis, HT-1376 and 5637 cells were rinsed with PBS three times and dissociated from a flask by using 50 mM EDTA and a cell scraper. Aliquots of the cell suspension containing 1 × 10^6 cells were pelleted at 300×g for 7 min, and one pellet of each cell line was dissolved in fresh PBS + 3% BSA containing 1 μM of probe 1b. As a negative control, one HT-1376 pellet was dissolved only in PBS + 3% BSA. The cells were incubated on ice for 1 h before they were pelleted again. The staining solution was discarded, and the pellet was washed in 1 mL of PBS + 0.5% BSA + 2 mM EDTA (FACS wash buffer) and centrifuged again. The washing step was repeated a total of three times. After the last wash, the pellets were dissolved in 500 μL of FACS wash buffer and analyzed with an Attune NxT Flow Cytometer (Invitrogen). For the detection, the BL1 laser with an excitation of 488 nm and an emission filter of 530/30 nm set to a Voltage of 270 was used. The forward scatter was set to a voltage of 80 or 120, and the sideward scatter was set to 320 or 370 for HT-1376 or 5637 cells, respectively. A sample of 50 μL was analyzed at a speed of 100 μL/min, leading to a total of 35410 and 34992 analyzed events (singlets) for HT-1376 and 5637 cells, respectively.

[1] = target: T1, recombinant human nectin-4 (Homo sapiens, UniProt Q96NY8); assay: Fluorescence anisotropy (FA) direct binding of fluorescent probes; conditions: 1 nM probe
T1 construct: close to the value determined for the complete extracellular domain of nectin-4 (0.94 nM); purchased R&D Systems 2659-N4
T1 sequence (Q96NY8 32-349 limits assumed): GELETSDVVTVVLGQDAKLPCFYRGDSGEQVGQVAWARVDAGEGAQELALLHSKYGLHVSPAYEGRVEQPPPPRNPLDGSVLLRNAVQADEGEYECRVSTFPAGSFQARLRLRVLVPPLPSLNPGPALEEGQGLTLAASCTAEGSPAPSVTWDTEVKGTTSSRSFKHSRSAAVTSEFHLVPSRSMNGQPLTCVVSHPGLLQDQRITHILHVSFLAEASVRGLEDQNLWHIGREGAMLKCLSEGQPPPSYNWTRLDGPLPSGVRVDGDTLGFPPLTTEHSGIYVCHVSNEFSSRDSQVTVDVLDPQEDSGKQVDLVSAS
Text: For characterizing the binding affinity of the bicyclic peptides toward nectin-4, we envisaged a fluorescence anisotropy-based competitive binding assay. Mudd et al. also used such an assay for the development of the bicycle drug conjugate BT8009. Herein, the peptidic scaffold of BT8009 was used as a basis for the required fluorescent nectin-4-ligand (probe) with either 6-TAMRA (1a) or 6-FAM (1b) being attached at the N-terminal Cys residue. […] In this context, the binding of the probe to nectin-4 was started by the addition of nectin-4, followed by continuous fluorescence measurements over 20 min. It is worth noting that a slight initial increase in the FA values could be observed for both probes (FA values at <300 s in Figure S1); however, this putative time-dependent association appeared to be too fast to analyze it. […]
All measurements were conducted at 37 °C over 1200 s (interval of 37 s) using a Cytation 5 multimode microplate reader (BioTek Instruments, Software Gen 5) and black 96-well microplates (BRANDplates with F-bottom wells). […] The FA (r) was calculated by Gen 5 software from the measured parallel and perpendicular fluorescence intensities (I ∥ and I ⊥, respectively) according to eq using a G factor of 0.87 (preset value). r=I∥−G×I⊥/I∥+2G×I⊥ 1 […]

dynamic range (ΔFA = mA of bound probe – mA of free probe) [1]: 86 (±7) mA
SMILES: CSCC[C@@H]1NC(=O)[C@@H]2CSCCC(=O)N3CN(CN(C3)C(=O)CCSC[C@H](NC(=O)c3ccc(C(=O)O)c(-c4c5ccc(=O)cc-5oc5cc(O)ccc45)c3)C(=O)N3CCC[C@H]3C(=O)N[C@@H](Cc3cccc4ccccc34)C(=O)N[C@H](CC(=O)O)C(=O)N2)C(=O)CCSC[C@@H](C(N)=O)NC(=O)[C@H](Cc2c[nH]c3ccccc23)NC(=O)[C@@H]2C[C@@H](O)CN2C(=O)[C@@H]2CCCN2C(=O)[C@H]([C@@H](C)O)NC(=O)[C@H](CO)NC(=O)[C@H](Cc2c[nH]c3ccccc23)NC(=O)[C@H](CC(=O)O)NC(=O)[C@H](CCCCNC(=N)N)NC1=O [1b]
binding of probe to cells (FACS) (HT-1376 cells): Nectin-4-specific binding

— paper PMC12557367, ““Precision on Two Wheels”–Structural Refinement of ^64Cu- and ^68Ga-Labeled Bicyclic Peptides Targeting Nectin‑4 for Improved Tumor Imaging: From Preclinical Development to First-in-Human Application” (Journal of Medicinal Chemistry, 2025)
